Experimental data: patent US5576355A, “Diamondoid derivatives for pharmaceutical use” (priority 1993, dated 1996)
Entries after “also recorded” stand apart in the source; their conditions may differ. Where two headings read alike, the source gives them in different places.

What was measured:
HIV-1/MN [1] = test: Anti-HIV assay (MTT, protection from cytopathic effect), pre- or post-infection, HIV-1/MN; assay type: cell-based; on MN Post-Infection: key: ++++: significant and reproducible inhibition of cytopathic effect; +++: significant and reproducible inhibition of cytopathic effect; +: noticeable but minimal protection; ---: no protective effect was observed; --: no protective effect was observed; -: no protection was observed but some changes in the cell culture occurred
HIV-1/MN [2] = test: Virus neutralization assay (MTT), HIV-1MN; assay type: cell-based; on MN Neutralization: key: ++++: significant and reproducible inhibition of cytopathic effect; +++: significant and reproducible inhibition of cytopathic effect; +: noticeable but minimal protection; ---: no protective effect was observed; --: no protective effect was observed; -: no protection was observed but some changes in the cell culture occurred
MT-2 cells = test: MTT dye reduction cytotoxicity assay, 5 days
Method: The MT-2 cell line was grown and maintained in RPMI 1640 containing 10% fetal calf serum and antibiotics.
Precisely, when the MT-2 cells were in log phase and 2×10^4 cells were distributed in each well along with separate 100 μl aliquots of diluted test compounds. The test compounds were soluble in ethyl alcohol (EtOH). Ethanol and medium were incubated in some wells with the cells as an ethanol control. A cell control was also included (wells containing only cells and medium). The plates were incubated for 5 days at 37° C. in 5% CO2 and humidified conditions. Cell viability was determined in each well by the MTT assay. The OD570 (optical density at 570 nm) of cells without test compound was taken as 0% killing and was compared to the OD570 of cells with test compound. The toxicity profile for different compounds was then scored. In the MTT dye reduction assay toxicity was indicated as yellow in the wells, with blue color indicating the compound was non-toxic.

HIV-1 = test: Anti-HIV testing under the rigorous conditions of the examples (strain not stated); conditions: high virus load, words
Influenza Viruses = conditions: cited from earlier work
HIV-1MN induced syncytia = test: Syncytia inhibition, HIV-1MN
VP6 primary HIV isolate = test: Anti-HIV assay (MTT), pre- or post-infection, VP6 isolate; conditions: words
[3] = tested on: AZT resistant strain (AZTR) of HIV-1; test: Anti-HIV assay (MTT), pre- or post-infection, AZT resistant strain; conditions: words
[4] = HIV-1/MN, virus pre-mixed with compound 1 hour

Structure (SMILES): O[C@@H]1[C@@H]2C[C@H]3C[C@@H](C2)C2(OCCO2)[C@@H]1C3 (relative stereo) [Compound 8, 4(e)-hydroxy-2-adamantanone ethylene glycol ketal]
- MN Post-Infection (HIV-1/MN [1]): -
- effect in pre-infection (pretreatment) assay (HIV-1/MN [1]): effective
- effect in neutralization assay (HIV-1/MN [2]): effective
- Toxicity at 5 μg/ml (MT-2 cells): -
- Toxicity at 50 μg/ml (MT-2 cells): -
- Toxicity at .5 μg/ml (MT-2 cells): -

Structure (SMILES): O=C1C2CC3CC(C2)CC1C3 [2-adamantanone, reference compound]
- activity under the rigorous testing conditions (HIV-1): ineffective

Structure (SMILES): O=C1C2CC3CC1CC(O)(C3)C2 [5-hydroxy-2-adamantanone]
- activity under the rigorous testing conditions (HIV-1): ineffective

Structure (SMILES): NC12CC3CC(CC(C3)C1)C2 [Amantadine]
- concentration at which viral entry into the cell is non-specifically inhibited (Influenza Viruses; altering the pH of the endocytic vesicle): > 0.5 mM
- concentration of selective strain-specific inhibition of virus assembly (Influenza Viruses; lower concentration): about 5 μM

Structure (SMILES): OC12CC3(O)CC(O)(C1)CC(O)(C2)C3 [Compound 1, 1,3,5,7-tetrahydroxyadamantane]
- MN Post-Infection (HIV-1/MN [1]; HIV-1/MN, post-infection): +++
- effect in both pre-infection and post-infection assays (HIV-1/MN [1]; HIV-1MN, words): effective
- effect in pre-infection (pretreatment) assay (HIV-1/MN [1]; MN, pre-infection, words): effective
- effect in post-infection assay (HIV-1/MN [1]; post-infection, words): effective
- effect in neutralization assay (HIV-1/MN [2]; neutralization, words): effective
- Toxicity at 5 μg/ml (MT-2 cells): -
- Toxicity at 50 μg/ml (MT-2 cells): -
- Toxicity at 500 μg/ml (MT-2 cells): -
- Toxicity at .5 μg/ml (MT-2 cells): -

Structure (SMILES): CC12CC3(C)CC(O)(C1)CC(O)(C2)C3 [Compound 2, 1,3-dihydroxy-5,7-dimethyladamantane]
- MN Post-Infection (HIV-1/MN [1]; HIV-1/MN, post-infection): +++
- effect in both pre-infection and post-infection assays (HIV-1/MN [1]; HIV-1MN, words): effective
- effect in pre-infection (pretreatment) assay (HIV-1/MN [1]; MN, pre-infection, words): effective
- effect in post-infection assay (HIV-1/MN [1]; post-infection, words): effective
- effect in neutralization assay (HIV-1/MN [2]; neutralization, words): effective
- Toxicity at 5 μg/ml (MT-2 cells): -
- Toxicity at 50 μg/ml (MT-2 cells): -
- Toxicity at .5 μg/ml (MT-2 cells): -

Structure (SMILES): C[N+](C)(C)CCC[N+](C)(C)C1C2CC3C4CC5CC3C1C(C5)C4C2 (stereo not shown) [Compound 3, N-3-diamantyl-N,N,N',N',N'-pentamethyl propane-1,3-bis ammonium diiodide]
- MN Post-Infection (HIV-1/MN [1]; HIV-1/MN, post-infection): +++
- effect in both pre-infection and post-infection assays (HIV-1/MN [1]; HIV-1MN, words): effective
- effect in pre-infection (pretreatment) assay (HIV-1/MN [1]; MN, pre-infection, words): effective
- effect in post-infection assay (HIV-1/MN [1]; post-infection, words): effective
- MN Neutralization (HIV-1/MN [2]; [4]): +++
- effect in neutralization assay (HIV-1/MN [2]; neutralization, words): effective
- Toxicity at 5 μg/ml (MT-2 cells): -
- Toxicity at 50 μg/ml (MT-2 cells): -
- Toxicity at .5 μg/ml (MT-2 cells): -

Structure (SMILES): C[N+](C)(C)CC[N+](C)(C)C1C2CC3CC(C2)CC1C3 (stereo not shown) [Compound 4, N-2-adamantyl-N,N,N',N',N'-pentamethyl ethane-1,2-bis ammonium diiodide]
- Toxicity at 5 μg/ml (MT-2 cells): -
- Toxicity at 50 μg/ml (MT-2 cells): -
- Toxicity at 500 μg/ml (MT-2 cells): -
- Toxicity at .5 μg/ml (MT-2 cells): -

Structure (SMILES): O=C(O)CNC1C2CC3CC(C2)CC1C3 (stereo not shown) [Compound 5, N-2-adamantyl glycine]
- MN Pre-Infection (HIV-1/MN [1]; HIV-1/MN, cells pretreated 1 hour): -
- MN Post-Infection (HIV-1/MN [1]; HIV-1/MN, post-infection): +++
- effect in post-infection assay (HIV-1/MN [1]; post-infection, words): effective
- MN Neutralization (HIV-1/MN [2]; [4]): -
- Toxicity at 5 μg/ml (MT-2 cells): -
- Toxicity at 50 μg/ml (MT-2 cells): -
- Toxicity at 500 μg/ml (MT-2 cells): -
- Toxicity at .5 μg/ml (MT-2 cells): -

Structure (SMILES): O=C1C2CC3C4CC5CC3C1C(C5)C4C2 [Compound 6, 3-diamantanone]
- MN Post-Infection (HIV-1/MN [1]): ++++
- MN Pre-Infection (HIV-1/MN [1]): +++
- effect in both pre-infection and post-infection assays (HIV-1/MN [1]): effective; also recorded: active
- effect in post-infection assay (HIV-1/MN [1]): effective
- effect in pre-infection (pretreatment) assay (HIV-1/MN [1]): effective
- MN Neutralization (HIV-1/MN [2]): +++
- effect in neutralization assay (HIV-1/MN [2]): effective; also recorded: active
- inhibition of HIV-1MN induced syncytia at 10 μg/ml (HIV-1MN induced syncytia; 10 μg/ml, FIG. 2): completely inhibit
- Toxicity at 5 μg/ml (MT-2 cells): -
- Toxicity at 50 μg/ml (MT-2 cells): -
- Toxicity at .5 μg/ml (MT-2 cells): -
- inhibition of virus replication, VP6 clinical isolates (VP6 primary HIV isolate; both pre- and post-infection): inhibited virus replication
- inhibition of clinical isolates (VP6 primary HIV isolate): shown to inhibit
- inhibition of virus replication, AZT resistant strains ([3]; both pre- and post-infection): inhibited virus replication
- inhibition of AZT resistant isolates [3]: shown to inhibit

Structure (SMILES): O=C1C2CC3CC(C2)C(=O)C1C3 [Compound 7, 2,4-adamantanedione]
- MN Post-Infection (HIV-1/MN [1]; HIV-1/MN, post-infection): -
- effect in pre-infection (pretreatment) assay (HIV-1/MN [1]; MN, pre-infection, words): effective; also recorded: inhibited viral cytopathic effect
- pretreatment compared with post-infection treatment (HIV-1/MN [1]; words): pretreatment is more effective than post-infection treatment
- effect in neutralization assay (HIV-1/MN [2]; neutralization, words): effective
- inhibition of syncytia formation (HIV-1MN induced syncytia; concentration not given): substantially eliminate syncytia formation
- Toxicity at 5 μg/ml (MT-2 cells): -
- Toxicity at 50 μg/ml (MT-2 cells): -
- Toxicity at 500 μg/ml (MT-2 cells): -
- Toxicity at .5 μg/ml (MT-2 cells): -
- inhibition of CPE of HIV, VP6 isolate (VP6 primary HIV isolate; pre-infection): inhibited CPE of HIV
- inhibition of clinical isolates (VP6 primary HIV isolate): shown to inhibit
- inhibition of CPE of HIV, AZT resistant isolate ([3]; pre-infection): inhibited CPE of HIV
- inhibition of AZT resistant isolates [3]: shown to inhibit

Structure (SMILES): C[N+](C)(C)CCC[N+](C)(C)C1C2CC3CC(C2)CC1C3 (stereo not shown) [N-(2-adamantyl)-N,N,N',N',N'-pentamethyl-propane-1,3-bis ammonium diodide]
- activity under the rigorous testing conditions (HIV-1): ineffective

Structure (SMILES): O=C1C2CC3CC1CC(C2)C3=O [adamantane-2,6-dione]
- activity under the rigorous testing conditions (HIV-1): ineffective

Structure (SMILES): O=C1C2CC3C4CC5CC3C(C2=O)C(C5)C14 [diamantane-3,5-dione]
- activity under the rigorous testing conditions (HIV-1): ineffective
